# Data as given in patent publication US9546157B2, “Asymmetric piperidinyl-substituted ureas as medicines” (Helsinn Healthcare SA, priority 2014, dated 2017).
# Tests used:
# GHSR1a [1] = target: T1, GHSR1a (Homo sapiens, UniProt Q92847); experiment: Calcium FLIPR assay, GHSR-1a agonism; format: cell-based; design: Emax: unit not given here; conditions: HEK293/GHSR1a cells
# T1 construct: expressed in transfected cells; host or cells: HEK293
# Procedure, shortened: (§1)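 Calcium dye-loaded HEK293/GHSR1a cells were monitored by FLIPR fluorescence for 2 min after additions at t=20 s. For antagonist mode, compound was co-added with ghrelin (10 nM) and scored by lowering the ghrelin signal. Agonist mode added compound alone; EC50 and IC50 came from dose-response data.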
# GHSR1a [2] = target: T1, GHSR1a; experiment: Calcium FLIPR assay, GHSR-1a antagonism (reduction of ghrelin response); format: cell-based; conditions: HEK293/GHSR1a cells, ghrelin 10 nM
# Procedure, shortened: as §1
# T1 sequence (Q92847 whole entry): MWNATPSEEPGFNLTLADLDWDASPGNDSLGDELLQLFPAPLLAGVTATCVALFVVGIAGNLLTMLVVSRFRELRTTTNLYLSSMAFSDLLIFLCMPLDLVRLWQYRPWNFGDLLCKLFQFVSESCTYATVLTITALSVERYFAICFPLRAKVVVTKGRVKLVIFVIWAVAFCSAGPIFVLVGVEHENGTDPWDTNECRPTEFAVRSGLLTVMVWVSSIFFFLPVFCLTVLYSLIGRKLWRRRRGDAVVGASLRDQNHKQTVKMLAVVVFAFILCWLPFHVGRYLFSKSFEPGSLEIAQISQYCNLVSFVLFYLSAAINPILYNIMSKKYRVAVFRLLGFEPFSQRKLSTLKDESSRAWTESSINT
Compound,EC50 (GHSR1a [1]) [nM],IC50 (GHSR1a [2]) [nM],Emax (GHSR1a [1])
"CC(NC(=O)N(C)C1CCN(C)CC1)c1ccc(-c2ccc(C(=O)N(C)C)s2)c(Cl)c1Cl (centres unmarked) [Compound H0726, 5-(2,3-dichloro-4-(1-(3-methyl-3-(1-methylpiperidin-4-yl)ureido)ethyl)phenyl)-N,N-dimethylthiophene-2-carboxamide]",> 30000,456,
"CN1CCC(N(C)C(=O)NC2(c3ccc(-c4cncnc4)c(Cl)c3Cl)CCOCC2)CC1 [Compound H0727, 3-(4-(2,3-dichloro-4-(pyrimidin-5-yl)phenyl)tetrahydro-2H-pyran-4-yl)-1-methyl-1-(1-methylpiperidin-4-yl)urea]",> 30000,3600,
"CC(NC(=O)N(C)C1CCN(C)CC1)c1ccc(-c2cccnn2)c(Cl)c1Cl (centres unmarked) [Compound H0729, 3-(1-(2,3-dichloro-4-(pyridazin-3-yl)phenyl)ethyl)-1-methyl-1-(1-methylpiperidin-4-yl)urea]",95,100,2818
"CC(NC(=O)N(C)C1CCN(C)CC1)c1ccc(C#Cc2ccccn2)c(Cl)c1Cl (centres unmarked) [Compound H0734, 3-(1-(2,3-dichloro-4-(pyridin-2-ylethynyl)phenyl)ethyl)-1-methyl-1-(1-methylpiperidin-4-yl)urea]",> 30000,202,
"C#Cc1ccc(C(CC2CC2)NC(=O)N(OC)C2CCN(C)CC2)c(Cl)c1Cl (centres unmarked) [Compound H0740, 3-(2-cyclopropyl-1-(2,3-dichloro-4-ethynylphenyl)ethyl)-1-methoxy-1-(1-methylpiperidin-4-yl)urea]",1.5,7,3620
"CON(C(=O)NC(CC1CC1)c1ccc(-c2cnccn2)c(Cl)c1Cl)C1CCN(C)CC1 (centres unmarked) [Compound H0741, 3-(2-cyclopropyl-1-(2,3-dichloro-4-(pyrazin-2-yl)phenyl)ethyl)-1-methoxy-1-(1-methylpiperidin-4-yl)urea]",> 30000,15,
"C#Cc1ccc(C(C)NC(=O)N(OC)C2CCN(C)CC2)c(Cl)c1Cl (centres unmarked) [Compound H0742, 3-(1-(2,3-dichloro-4-ethynylphenyl)ethyl)-1-methoxy-1-(1-methylpiperidin-4-yl)urea]",> 30000,54,
"C#Cc1ccc(C(CC2CC2)NC(=O)N(OCC)C2CCN(C)CC2)c(Cl)c1Cl (centres unmarked) [Compound H0744, 3-(2-cyclopropyl-1-(2,3-dichloro-4-ethynylphenyl)ethyl)-1-ethoxy-1-(1-methylpiperidin-4-yl)urea]",45,33,3536
"CC(NC(=O)N(C)C1CCN(C)CC1)c1ccc(-c2cncc(-c3cnn(C)c3)c2)c(Cl)c1Cl (centres unmarked) [Compound H0748, 3-(1-(2,3-dichloro-4-(5-(1-methyl-1H-pyrazol-4-yl)pyridin-3-yl)phenyl)ethyl)-1-methyl-1-(1-methylpiperidin-4-yl)urea]",> 30000,554,
"C#Cc1ccc(C(C)NC(=O)N(OCC)C2CCN(C)CC2)c(Cl)c1Cl (centres unmarked) [Compound H0749, 3-(1-(2,3-dichloro-4-ethynylphenyl)ethyl)-1-ethoxy-1-(1-methylpiperidin-4-yl)urea]",397,111,1554
"CC(NC(=O)N(C)C1CCN(C)CC1)c1ccc(C#CCO)c(Cl)c1Cl (centres unmarked) [Compound H0755, 3-(1-(2,3-dichloro-4-(3-hydroxyprop-1-yn-1-yl)phenyl)ethyl)-1-methyl-1-(1-methylpiperidin-4-yl)urea]",10,12,2196
"CC(NC(=O)N(O)C1CCN(C)CC1)c1ccc(-c2cnccn2)c(Cl)c1Cl (centres unmarked) [Compound H0756, 3-(1-(2,3-dichloro-4-(pyrazin-2-yl)phenyl)ethyl)-1-hydroxy-1-(1-methylpiperidin-4-yl)urea]",13,13,1729
"CC(NC(=O)N(C)C1CCN(C)CC1)c1ccc(-c2cncc([N+](=O)[O-])c2)c(Cl)c1Cl (centres unmarked) [Compound H0766, 3-(1-(2,3-dichloro-4-(5-nitropyridin-3-yl)phenyl)ethyl)-1-methyl-1-(1-methylpiperidin-4-yl)urea]",> 30000,171,
"CC(NC(=O)N(C)C1CCN(C)CC1)c1ccc(-c2ccncn2)c(Cl)c1Cl (centres unmarked) [Compound H0768, 3-(1-(2,3-dichloro-4-(pyrimidin-4-yl)phenyl)ethyl)-1-methyl-1-(1-methylpiperidin-4-yl)urea]",> 30000,279,

# The remaining lines, values ahead:
EC50 (GHSR1a [1]) [nM],IC50 (GHSR1a [2]) [nM],Emax (GHSR1a [1]),Compound
> 30000,396,,"CC(NC(=O)N(C)C1CCN(C)CC1)c1ccc(-c2cncc(-c3cccs3)c2)c(Cl)c1Cl (centres unmarked) [Compound H0717, 3-(1-(2,3-dichloro-4-(5-(thiophen-2-yl)pyridin-3-yl)phenyl)ethyl)-1-methyl-1-(1-methylpiperidin-4-yl)urea]"
> 30000,499,,"CC(NC(=O)N(C)C1CCN(C)CC1)c1ccc(-c2cncc(C3CCCC3)c2)c(Cl)c1Cl (centres unmarked) [Compound H0718, 3-(1-(2,3-dichloro-4-(5-cyclopentylpyridin-3-yl)phenyl)ethyl)-1-methyl-1-(1-methylpiperidin-4-yl)urea]"
> 30000,780,,"CC(NC(=O)N(C)C1CCN(C)CC1)c1ccc(-c2cncc(N3CCCC3)c2)c(Cl)c1Cl (centres unmarked) [Compound H0719, 3-(1-(2,3-dichloro-4-(5-(pyrrolidin-1-yl)pyridin-3-yl)phenyl)ethyl)-1-methyl-1-(1-methylpiperidin-4-yl)urea]"
> 30000,95,,"CC(O)C#Cc1ccc(C(C)NC(=O)N(C)C2CCN(C)CC2)c(Cl)c1Cl (centres unmarked) [Compound H0733, 3-(1-(2,3-dichloro-4-(3-hydroxybut-1-yn-1-yl)phenyl)ethyl)-1-methyl-1-(1-methylpiperidin-4-yl)urea]"
> 30000,209,,"CC(NC(=O)N(C)C1CCN(C)CC1)c1ccc(-c2cncc(-c3ncccn3)c2)c(Cl)c1Cl (centres unmarked) [Compound H0735, 3-(1-(2,3-dichloro-4-(5-(pyrimidin-2-yl)pyridin-3-yl)phenyl)ethyl)-1-methyl-1-(1-methylpiperidin-4-yl)urea]"
> 30000,696,,"COc1cncc(-c2ccc(C(C)NC(=O)N(C)C3CCN(C)CC3)c(Cl)c2Cl)n1 (centres unmarked) [Compound H0738, 3-(1-(2,3-dichloro-4-(6-methoxypyrazin-2-yl)phenyl)ethyl)-1-methyl-1-(1-methylpiperidin-4-yl)urea]"
> 30000,94,,"CON(C(=O)NC(C)c1ccc(-c2cnccn2)c(Cl)c1Cl)C1CCN(C)CC1 (centres unmarked) [Compound H0743, 3-(1-(2,3-dichloro-4-(pyrazin-2-yl)phenyl)ethyl)-1-methoxy-1-(1-methylpiperidin-4-yl)urea]"
97,57,2391,"C#Cc1ccc(C(C)NC(=O)N(O)C2CCN(C)CC2)c(Cl)c1Cl (centres unmarked) [Compound H0745, 3-(1-(2,3-dichloro-4-ethynylphenyl)ethyl)-1-hydroxy-1-(1-methylpiperidin-4-yl)urea]"
> 30000,216,,"CC(NC(=O)N(C)C1CCN(C)CC1)c1ccc(-c2cncc(-c3ccoc3)c2)c(Cl)c1Cl (centres unmarked) [Compound H0746, 3-(1-(2,3-dichloro-4-(5-(furan-3-yl)pyridin-3-yl)phenyl)ethyl)-1-methyl-1-(1-methylpiperidin-4-yl)urea]"
> 30000,84,,"CC(NC(=O)N(C)C1CCN(C)CC1)c1ccc(-c2cncc(-c3ccsc3)c2)c(Cl)c1Cl (centres unmarked) [Compound H0747, 3-(1-(2,3-dichloro-4-(5-(thiophen-3-yl)pyridin-3-yl)phenyl)ethyl)-1-methyl-1-(1-methylpiperidin-4-yl)urea]"
> 30000,177,,"CCON(C(=O)NC(C)c1ccc(-c2cnccn2)c(Cl)c1Cl)C1CCN(C)CC1 (centres unmarked) [Compound H0750, 3-(1-(2,3-dichloro-4-(pyrazin-2-yl)phenyl)ethyl)-1-ethoxy-1-(1-methylpiperidin-4-yl)urea]"
> 30000,100,,"CCON(C(=O)NC(CC1CC1)c1ccc(-c2cnccn2)c(Cl)c1Cl)C1CCN(C)CC1 (centres unmarked) [Compound H0752, 3-(2-cyclopropyl-1-(2,3-dichloro-4-(pyrazin-2-yl)phenyl)ethyl)-1-ethoxy-1-(1-methylpiperidin-4-yl)urea]"
> 30000,60,,"CC(NC(=O)N(C)C1CCN(C)CC1)c1ccc(C#Cc2cncnc2)c(Cl)c1Cl (centres unmarked) [Compound H0753, 3-(1-(2,3-dichloro-4-(pyrimidin-5-ylethynyl)phenyl)ethyl)-1-methyl-1-(1-methylpiperidin-4-yl)urea]"
654,159,2704,"CCOC(C#Cc1ccc(C(C)NC(=O)N(C)C2CCN(C)CC2)c(Cl)c1Cl)OCC (centres unmarked) [Compound H0757, 3-(1-(2,3-dichloro-4-(3,3-diethoxyprop-1-yn-1-yl)phenyl)ethyl)-1-methyl-1-(1-methylpiperidin-4-yl)urea]"
> 30000,6200,,CC(NC(=O)N(C)C1CCN(C)CC1)c1ccc(-c2cnc(C(N)=O)cn2)c(Cl)c1Cl (centres unmarked) [Compound H0760]
> 30000,835,,"CC(NC(=O)N(C)C1CCN(C)CC1)c1ccc(C#Cc2c[nH]cn2)c(Cl)c1Cl (centres unmarked) [Compound H0763, 3-(1-(4-((1H-imidazol-4-yl)ethynyl)-2,3-dichlorophenyl)ethyl)-1-methyl-1-(1-methylpiperidin-4-yl)urea]"
137,61,2810,"CC(NC(=O)N(C)C1CCN(C)CC1)c1ccc(-c2cncc(C3CC3)c2)c(Cl)c1Cl (centres unmarked) [Compound H0765, 3-(1-(2,3-dichloro-4-(5-cyclopropylpyridin-3-yl)phenyl)ethyl)-1-methyl-1-(1-methylpiperidin-4-yl)urea]"
